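Dose response: 5 concentrations. Exposure: 48 h. Format: 96-well plates. Endpoint: linear interpolation; highest concentration if not reached. GI50 marks 50% less growth.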 Calls of active or inactive are those of the source. Cut-off read from the data, not from the text of the source: active = GI50 up to about 1.1 µM and inactive = higher.
Columns and labels:
Assay in all cases: DTP human tumour cell line panel, 48 h
SK-MEL-5 = test system: SK-MEL-5
A549 = test system: A549
UO-31 = test system: UO-31
SNB-75 = test system: SNB-75
T47D = test system: T47D
RPMI-8226 = test system: RPMI-8226
CAKI-1 = test system: CAKI-1
M14 = test system: M14
TK-10 = test system: TK-10
HOP-92 = test system: HOP-92
DU-145 = test system: DU-145
HCT-116 = test system: HCT-116
ACHN = test system: ACHN
CCRF-CEM = test system: CCRF-CEM
SF-268 = test system: SF-268
SF-295 = test system: SF-295
786-0 = test system: 786-0
IGROV-1 = test system: IGROV-1
NCI-H522 = test system: NCI-H522

Measured: GI50

O=C(C=P(c1ccccc1)(c1ccccc1)c1ccccc1)c1ccc(-c2cccc([N+](=O)[O-])c2)cc1
inactive: SK-MEL-5 2.22 µM | A549 3.64 µM | UO-31 2.09 µM | SNB-75 2.29 µM | T47D 3.85 µM | RPMI-8226 1.87 µM | CAKI-1 2.74 µM | M14 2.05 µM | TK-10 3.23 µM | HOP-92 2.16 µM | DU-145 6.07 µM | HCT-116 2.21 µM | ACHN 2.82 µM | CCRF-CEM 2.79 µM | SF-268 4.65 µM | SF-295 3.6 µM | 786-0 4.51 µM

C=C1CN(C2=NCCO2)C1
inactive: SK-MEL-5 > 100 µM | A549 > 100 µM | IGROV-1 > 100 µM | UO-31 > 100 µM | SNB-75 > 100 µM | T47D > 100 µM | RPMI-8226 > 100 µM | CAKI-1 > 100 µM | M14 > 100 µM | TK-10 > 100 µM | HOP-92 > 100 µM | DU-145 > 100 µM | HCT-116 > 100 µM | ACHN > 100 µM | CCRF-CEM > 100 µM | SF-268 > 100 µM | SF-295 > 100 µM | 786-0 > 100 µM

CCN(CC)C(=O)COc1cc2c(O)c3c(O)c(C)c4c(c13)C(=O)C(C)(OC=CC(OC)C(C)C(OC(C)=O)C(C)C(O)C(C)C(O)C(C)C=CC=C(C)C(=O)N2)O4 (configuration not stated)
inactive: SK-MEL-5 > 100 µM | A549 > 100 µM | IGROV-1 > 100 µM | UO-31 > 100 µM | SNB-75 > 100 µM | T47D > 100 µM | RPMI-8226 37.4 µM | CAKI-1 > 100 µM | M14 > 100 µM | TK-10 > 100 µM | HOP-92 > 100 µM | DU-145 > 100 µM | HCT-116 > 100 µM | ACHN > 100 µM | CCRF-CEM > 100 µM | SF-268 > 100 µM | SF-295 > 100 µM | 786-0 > 100 µM

Cc1ccc2c(=O)c(-c3nnc(N)s3)c[nH]c2n1
inactive: SK-MEL-5 > 100 µM | A549 > 100 µM | IGROV-1 > 100 µM | UO-31 > 100 µM | T47D > 100 µM | RPMI-8226 > 100 µM | CAKI-1 > 100 µM | M14 > 100 µM | TK-10 > 100 µM | DU-145 > 100 µM | HCT-116 > 100 µM | ACHN > 100 µM | CCRF-CEM > 100 µM | NCI-H522 > 100 µM | SF-268 36.3 µM | SF-295 > 100 µM | 786-0 55.2 µM

O=C(O)C1CCCCC1C(=O)Nn1cnnc1 (configuration not stated)
inactive: SK-MEL-5 > 100 µM | A549 > 100 µM | IGROV-1 > 100 µM | UO-31 > 100 µM | SNB-75 > 100 µM | RPMI-8226 > 100 µM | M14 > 100 µM | TK-10 > 100 µM | HOP-92 > 100 µM | DU-145 > 100 µM | HCT-116 > 100 µM | ACHN > 100 µM | CCRF-CEM > 100 µM | NCI-H522 > 100 µM | SF-268 > 100 µM | SF-295 > 100 µM | 786-0 > 100 µM

CCN1C[C@]2(C)CC[C@H](OCc3ccccc3)C34C5C[C@@H]6CC[C@](O)(C(C[C@@H]32)C14)C5[C@H]6OCc1ccccc1 (some centres not stated)
inactive: SK-MEL-5 51.3 µM | A549 > 100 µM | IGROV-1 92.3 µM | UO-31 73.1 µM | SNB-75 49 µM | T47D 56.1 µM | RPMI-8226 31 µM | M14 46.9 µM | TK-10 45.8 µM | HOP-92 > 100 µM | DU-145 > 100 µM | HCT-116 42.7 µM | ACHN 32.4 µM | CCRF-CEM 56.5 µM | SF-268 > 100 µM | SF-295 > 100 µM | 786-0 > 100 µM

CCOc1cc2c(cc1O)C(N)C[C@@H]1[C@@H]2CC[C@]2(C)[C@@H](O)CC[C@@H]12 (some centres not stated)
inactive: SK-MEL-5 30.2 µM | IGROV-1 52.6 µM | UO-31 36.9 µM | SNB-75 15 µM | T47D 84.1 µM | CAKI-1 32.9 µM | M14 26.9 µM | TK-10 83 µM | HOP-92 25.6 µM | ACHN 34.8 µM | CCRF-CEM 22.6 µM | NCI-H522 33.5 µM | SF-268 61.7 µM | SF-295 32.7 µM | 786-0 40.3 µM

O=C(Cn1c(C(=O)/C=C/c2cccs2)nc2ccccc21)c1ccc(Cl)cc1
inactive: SK-MEL-5 14.4 µM | A549 23.3 µM | IGROV-1 16.7 µM | UO-31 24.1 µM | SNB-75 24.2 µM | T47D 36.3 µM | RPMI-8226 8.05 µM | M14 18.6 µM | TK-10 27 µM | HOP-92 23.3 µM | DU-145 26.7 µM | HCT-116 16.6 µM | ACHN 26.6 µM | SF-268 12.6 µM | 786-0 16.3 µM

Cn1c(=O)c2[nH]cnc2n(CC(N)=O)c1=O
inactive: SK-MEL-5 > 100 µM | A549 > 100 µM | IGROV-1 > 100 µM | UO-31 > 100 µM | SNB-75 > 100 µM | RPMI-8226 > 100 µM | CAKI-1 > 100 µM | M14 > 100 µM | TK-10 > 100 µM | HOP-92 > 100 µM | HCT-116 > 100 µM | ACHN > 100 µM | CCRF-CEM > 100 µM | NCI-H522 > 100 µM | SF-268 > 100 µM | 786-0 > 100 µM

N#C/C(=C\c1cc(Br)c(O)c(Br)c1)c1cccnc1
inactive: SK-MEL-5 > 10 µM | A549 34.2 µM | IGROV-1 52.8 µM | UO-31 22.1 µM | SNB-75 75 µM | RPMI-8226 21.6 µM | CAKI-1 35.7 µM | M14 26.1 µM | TK-10 27.4 µM | DU-145 > 100 µM | HCT-116 > 100 µM | ACHN 36.3 µM | CCRF-CEM 18.2 µM | NCI-H522 30.6 µM | SF-268 33.4 µM | SF-295 18.5 µM | 786-0 10.1 µM

COC(=O)c1cc(/C=C2\Cc3cc4c(cc3C2=O)CCC4)cc2c1CCC2
inactive: A549 > 100 µM | IGROV-1 > 100 µM | UO-31 > 100 µM | SNB-75 > 100 µM | T47D > 100 µM | RPMI-8226 > 100 µM | CAKI-1 > 100 µM | M14 > 100 µM | TK-10 > 100 µM | DU-145 > 100 µM | HCT-116 63 µM | ACHN > 100 µM | CCRF-CEM > 100 µM | NCI-H522 > 100 µM | SF-268 > 100 µM | SF-295 > 100 µM | 786-0 > 100 µM

CCC(O)(Cc1ccc(OC)cc1)c1ccc(OC)cc1 (configuration not stated)
inactive: SK-MEL-5 > 100 µM | A549 > 100 µM | IGROV-1 > 100 µM | UO-31 > 100 µM | SNB-75 > 100 µM | RPMI-8226 > 100 µM | CAKI-1 > 100 µM | M14 > 100 µM | TK-10 > 100 µM | HOP-92 > 100 µM | DU-145 > 100 µM | HCT-116 > 100 µM | ACHN > 100 µM | CCRF-CEM > 100 µM | NCI-H522 > 100 µM | SF-268 > 100 µM | SF-295 > 100 µM | 786-0 > 100 µM

COP(C)(=O)C(Cc1c[nH]c2ccccc12)NC(=O)OCc1ccccc1 (configuration not stated)
inactive: SK-MEL-5 > 100 µM | A549 > 100 µM | IGROV-1 > 100 µM | UO-31 > 100 µM | T47D > 100 µM | RPMI-8226 > 100 µM | CAKI-1 > 100 µM | M14 > 100 µM | TK-10 > 100 µM | HOP-92 > 100 µM | DU-145 > 100 µM | HCT-116 > 100 µM | ACHN > 100 µM | CCRF-CEM > 100 µM | SF-268 > 100 µM | SF-295 > 100 µM | 786-0 > 100 µM

Oc1ccc[n+](Cc2ccccc2)c1
inactive: SK-MEL-5 > 100 µM | A549 > 100 µM | UO-31 > 100 µM | SNB-75 > 100 µM | T47D > 100 µM | RPMI-8226 > 100 µM | CAKI-1 > 100 µM | M14 > 100 µM | TK-10 > 100 µM | DU-145 > 100 µM | HCT-116 > 100 µM | ACHN > 100 µM | CCRF-CEM > 100 µM | NCI-H522 > 100 µM | SF-268 > 100 µM | SF-295 > 100 µM | 786-0 > 100 µM

COC(=O)c1ccc(OCc2ccc3oc(=O)c(-c4ccccc4)nc3c2)cc1
inactive: SK-MEL-5 > 100 µM | A549 > 100 µM | UO-31 > 100 µM | SNB-75 > 100 µM | RPMI-8226 34.9 µM | CAKI-1 > 100 µM | M14 > 100 µM | TK-10 44 µM | HCT-116 > 100 µM | ACHN > 100 µM | CCRF-CEM 23.5 µM | NCI-H522 33.6 µM | SF-268 > 100 µM | SF-295 > 100 µM | 786-0 28.9 µM

Cc1ccc(S(=O)(=O)c2c(O)c3ccccc3n(C)c2=O)cc1
inactive: SK-MEL-5 > 100 µM | A549 > 100 µM | IGROV-1 > 100 µM | UO-31 > 100 µM | SNB-75 > 100 µM | T47D > 100 µM | RPMI-8226 > 100 µM | CAKI-1 > 100 µM | M14 > 100 µM | HOP-92 > 100 µM | DU-145 > 100 µM | HCT-116 > 100 µM | CCRF-CEM > 100 µM | SF-268 > 100 µM | SF-295 > 100 µM | 786-0 > 100 µM

Reference: ChEMBL document CHEMBL1201862, “PubChem BioAssay data set” (2004)
